Results: paper PMC3579193, “Elucidation of relaxin-3 binding interactions in the extracellular loops of RXFP3” (Frontiers in Endocrinology, 2013)
Ends that are not written are not given here.

Experiments:
RXFP4 over RXFP3 = conditions: ref Zhu et al., 2008; cited from earlier work
Excerpt: (§1) Although residues in the peptides have been identified as critical for activity, the specific residues in the receptors that are interacting with these are unknown. […] In addition they determined that sites in transmembrane (TM) 2, 3, and 5 are involved in receptor activation by INSL5 ([Zhu et al., 2008]). None of the receptor chimeras resulted ...

HA-RXFP3 E245A (human) = HA-RXFP3 E245A (human) (UniProt Q9NSD7); assay: europium-labelled ligand binding on cells; specific binding of 5 nM Eu-H3/I5 to transfected HEK-293T cells in 96 well optiplates; non-specific binding with 1 uM unlabeled H3 relaxin; expressed as ratio of specific binding to cell surface expression, normalized to HA-RXFP3
HA-RXFP3 E77A (human) = HA-RXFP3 E77A (human) (UniProt Q9NSD7); assay: as above
rats = conditions: central administration, ref McGowan et al., 2005, 2006, Ganella et al., 2012b; cited from earlier work
Excerpt: Relaxin-3 is involved in a wide range of behaviors, including feeding, stress responses, arousal, and cognitive processes ([Smith et al., 2011]). […] Relaxin-3 neuronal activity and production of relaxi ...

RXFP4 = conditions: ref Liu et al., 2003a; cited from earlier work
Excerpt: Relaxin-3 is a member of the relaxin peptide family. Peptides from this family activate relaxin family peptide (RXFP) receptors, which are Type I or Class A G protein-coupled receptors (GPCRs). […] The rela ... || Based on the hypothesis that coevolution of relaxin-3 and RXFP3 occurred in vertebrates and that residues important for relaxin-3 binding and activation should therefore be conserved we performed multiple sequence alignments of all vertebrate RXFP3 sequences. […] Figure 1A highlights sequence alignments of representative mammalian species (human, chimpanzee, rat, mouse, platypus) and representative lower vertebrate species (Frog and Zebrafish) from this analysis compa ... || Based on the hypothesis that coevolution of relaxin-3 and RXFP3 occurred in vertebrates, and in the knowledge that the key relaxin-3 B-chain residues are conserved across all vertebrate species ([Wilkinson et al., 2005b]), we performed multiple sequence alignments of all vertebrate RXFP3 sequences to identify highly conserved residues in the ELs and NT domain that may be involved in relaxin-3 binding. […] We have focused on glutamic (E) and aspartic acid (D) residues ...

RXFP1 = conditions: ref Sudo et al., 2003; cited from earlier work
Excerpt: Relaxin-3 is a member of the relaxin peptide family. Peptides from this family activate relaxin family peptide (RXFP) receptors, which are Type I or Class A G protein-coupled receptors (GPCRs). […] The rela ...

[1] = system: chimeric RXFP3/4 receptors; conditions: ref Zhu et al., 2008; cited from earlier work
Excerpt: as §1

## INSL5: related insulin-like peptide-5, ligand of RXFP4 (Insulin-like peptide INSL5 B … KESVRLCGLEYIRTVIYICASSRW; Insulin-like peptide INSL5 A … QDLQTLCCTDGCSMTDLSALC; ends and bridges not checked; cysteine pairing not given here; UniProt Q9Y5Q6 23-46; Q9Y5Q6 115-135, looked up)
RXFP4 over RXFP3
  selectivity: selectivity of INSL5 for RXFP4 over RXFP3

## mono-Eu-labeled relaxin-3 agonist H3 relaxin B-chain, INSL5 A chain (H3/I5) (ligand)
HA-RXFP3 E245A (human)
  decrease in specific binding against HA-RXFP3: 50%
HA-RXFP3 E77A (human)
  loss of specific binding against HA-RXFP3: 50%

## relaxin-3: highly conserved neuropeptide, member of the relaxin peptide family; endogenous ligand of RXFP3
rats
  effect on feeding: increase feeding in rats
RXFP4
  binding to and activation of RXFP4: able to bind to and activate both RXFP4
RXFP1
  binding to and activation of RXFP1: able to bind to and activate both RXFP4 ([Liu et al., 2003a]) and RXFP1
[1]
  effect of receptor chimeras on binding or activity: None of the receptor chimeras resulted in appreciable changes in relaxin-3 binding or activity
